In general, MIC refers to the lowest concentration that inhibits growth of the organism. Low readings indicate inhibition by little substance, high ones a need for much substance.

Type in all cases: functional
Test [1] relates to Mycobacterium tuberculosis. Briefly: Antimycobacterial activity against rifampicin-resistant Mycobacterium tuberculosis H37Rv ATCC 35828 RIF-R2.
In test [2] the test system is Mycobacterium tuberculosis. As to the kind of experiment: Antimycobacterial activity against fluoroquinolone-resistant Mycobacterium tuberculosis H37Rv FQ-R1 harboring unidentified mutation.
For test [3], the system named is Mycobacterium tuberculosis. Briefly: Antimycobacterial activity against isoniazid-resistant Mycobacterium tuberculosis H37Rv ATCC 35822.
Test [4] relates to Mycobacterium tuberculosis. As to the kind of experiment: Antimycobacterial activity against isoniazid-resistant Mycobacterium tuberculosis H37Rv ATCC 35822 INH-R2.
The test system of test [5] is Mycobacterium tuberculosis. As to the kind of experiment: Antimycobacterial activity against rifampicin-resistant Mycobacterium tuberculosis H37Rv RIF-R1 harboring rpoB S522L mutant.
The subject of test [6] is Mycobacterium tuberculosis. As to the kind of experiment: Antimycobacterial activity against isoniazid-resistant Mycobacterium tuberculosis H37Rv INH-R1 harboring katG Y155 truncated mutant.
Test [7] deals with Mycobacterium tuberculosis. As to the kind of experiment: Antimycobacterial activity against ofloxacin-resistant Mycobacterium tuberculosis H37Rv ATCC 35828.
For test [8], the system named is Mycobacterium tuberculosis. Briefly: Antimycobacterial activity against rifampicin-resistant Mycobacterium tuberculosis H37Rv ATCC 35828.
Test [9] deals with Mycobacterium tuberculosis. As to the kind of experiment: Antimycobacterial activity against streptomycin-resistant Mycobacterium tuberculosis H37Rv ATCC 35820 by microplate alamar blue assay. Background: Alamar Blue is a resazurin reagent that responds to reducing activity.
Test [10] deals with Mycobacterium tuberculosis. Briefly: Antimycobacterial activity against streptomycin-resistant Mycobacterium tuberculosis H37Rv ATCC 35820.
Test [11] deals with Mycobacterium tuberculosis. As to the kind of experiment: Antimycobacterial activity against ethionamide-resistant Mycobacterium tuberculosis H37Rv ATCC 35830.
Test [12] deals with Mycobacterium tuberculosis. As to the kind of experiment: Antimycobacterial activity against kanamycin-resistant Mycobacterium tuberculosis H37Rv ATCC 3582.
In test [13] the test system is Mycobacterium tuberculosis. As to the kind of experiment: Antimycobacterial activity against ethambutol-resistant Mycobacterium tuberculosis H37Rv ATCC 35837.

In brackets after ≈: the same amount, converted by molar mass.

For `CO[C@H]1/C=C/O[C@@]2(C)Oc3c(C)c(O)c4c(O)c(c(/C=N/N5CCN(C)CC5)c(O)c4c3C2=O)NC(=O)/C(C)=C\C=C\[C@H](C)[C@H](O)[C@@H](C)[C@@H](O)[C@@H](C)[C@H](OC(C)=O)[C@@H]1C` [RIFAMPIN], the MIC in test [1] worked out at 0.62 µg/mL (≈ 0.753 µM); in test [2], 0.37 µg/mL (≈ 0.45 µM); in test [3], 0.05 µg/mL (≈ 0.0608 µM); in test [4] it was 100 µg/mL (≈ 122 µM); in test [5], 0.29 µg/mL (≈ 0.352 µM); in test [6] it was 0.015 µg/mL (≈ 0.0182 µM). In test [7], this compound had an MIC of 0.195 µg/mL (≈ 0.237 µM).
Consider `C[C@H]1[C@H](C)CC[C@]2(CO)CC[C@]3(C)C(=CC[C@@H]4[C@@]5(C)CCCNC(C)(C)[C@@H]5CC[C@]43C)[C@@H]12`, for which the MIC came out at 51 µg/mL (≈ 115 µM) in test [1]; 34 µg/mL (≈ 77 µM) in [2]; 39 µg/mL (≈ 88.3 µM) in test [4]; 29 µg/mL (≈ 65.6 µM) in test [5]; 37 µg/mL (≈ 83.8 µM) in [6].
The matching figures for `COc1ccc(/C=C/C(=O)OC[C@]23CC[C@@H](C)[C@H](C)[C@@H]2C2=CC[C@@H]4[C@@]5(C)CCCNC(C)(C)[C@@H]5CC[C@@]4(C)[C@]2(C)CC3)cc1`: 21 µg/mL (≈ 34.9 µM), 20 µg/mL (≈ 33.2 µM), 17 µg/mL (≈ 28.2 µM), 24 µg/mL (≈ 39.9 µM) and 20 µg/mL (≈ 33.2 µM).
The matching figures for `CC1(C)CC[C@]2(CO)CC[C@]3(C)C(=CC[C@@H]4[C@@]5(C)CCCNC(C)(C)[C@@H]5CC[C@]43C)[C@H]2C1`: 69 µg/mL (≈ 156 µM), 44 µg/mL (≈ 99.6 µM), 15 µg/mL (≈ 34 µM), 39 µg/mL (≈ 88.3 µM) and 34 µg/mL (≈ 77 µM).
The matching figures for `CC1(C)CC[C@]2(COC(=O)/C=C/c3ccccc3)CC[C@]3(C)C(=CC[C@@H]4[C@@]5(C)CCCNC(C)(C)[C@@H]5CC[C@]43C)[C@H]2C1`: 14 µg/mL (≈ 24.5 µM), 13 µg/mL (≈ 22.7 µM), 12 µg/mL (≈ 21 µM), 7.4 µg/mL (≈ 12.9 µM) and 13 µg/mL (≈ 22.7 µM).
For `C=C(C)[C@@H]1CC[C@]2(COC(=O)CCC(=O)O)CC[C@]3(C)[C@H](CC[C@@H]4[C@@]5(C)CCCNC(C)(C)[C@@H]5CC[C@]43C)[C@@H]12`, the figures for the MIC in [8], in [3] and in test [7] were 6 µg/mL (≈ 11.1 µM), 12 µg/mL (≈ 22.1 µM) and 6 µg/mL (≈ 11.1 µM), respectively.
For `NNC(=O)c1ccncc1` [ISONIAZID], the MIC in [8] is 0.02 µg/mL (≈ 0.146 µM); in [1], 1.3 µg/mL (≈ 9.48 µM); in [2], 29 µg/mL (≈ 211 µM); in test [4] it was 1.4 µg/mL (≈ 10.2 µM); in [5], 1.2 µg/mL (≈ 8.75 µM); in [6] it was over 200 µg/mL.
For the compound `C[C@H]1[C@H](C)CC[C@]2(C(=O)O)CC[C@]3(C)C(=CC[C@@H]4[C@@]5(C)CC[C@H](O)C(C)(C)[C@@H]5CC[C@]43C)[C@H]12` [URSOLIC ACID], the MIC in test [9] came to 12.5 µg/mL (≈ 27.4 µM).
For `C[C@H]1[C@H](C)CC[C@]2(COC(=O)/C=C/c3ccccc3)CC[C@]3(C)C(=CC[C@@H]4[C@@]5(C)CCCNC(C)(C)[C@@H]5CC[C@]43C)[C@@H]12`, the MIC in test [1] came out at 24 µg/mL (≈ 42 µM); in test [2] it was 27 µg/mL (≈ 47.2 µM); in test [4] it was 15 µg/mL (≈ 26.2 µM); in [5] it was 19 µg/mL (≈ 33.2 µM); in test [6], 28 µg/mL (≈ 49 µM).
Consider `C=C(C)[C@@H]1CC[C@]2(CO)CC[C@]3(C)[C@H](CC[C@@H]4[C@@]5(C)CCCNC(C)(C)[C@@H]5CC[C@]43C)[C@@H]12`, for which the MIC in test [10] was determined as 5 µg/mL (≈ 11.3 µM); in [3] it was 5 µg/mL (≈ 11.3 µM); in test [11], 10 µg/mL (≈ 22.6 µM); in [12], 10 µg/mL (≈ 22.6 µM); in [13], 5 µg/mL (≈ 11.3 µM).
As to `C=C(C)[C@@H]1CC[C@]2(COC(=O)/C=C/c3ccccc3)CC[C@]3(C)[C@H](CC[C@@H]4[C@@]5(C)CCCNC(C)(C)[C@@H]5CC[C@]43C)[C@@H]12`, the MIC in [8] stood at 1 µg/mL (≈ 1.75 µM); in test [3] it was 4 µg/mL (≈ 6.99 µM); in test [7] it was 1 µg/mL (≈ 1.75 µM).

The values are drawn from ChEMBL document CHEMBL4251581, “Synthesis and antimycobacterial activity of triterpeni≿ A-ring azepanes” (Eur J Med Chem, 2018).
